# Data taken from ChEMBL document CHEMBL3046501, “Synthesis, characterization & anticonvulsant activity of amide derivatives of 4-amino-1,2-naphthoquinone” (Med Chem Res, 2013).
# Active and inactive are the calls of the source. No cut-off for these calls is given here.
# What was measured:
# [1] = test system: Mus musculus; assay: Anticonvulsant activity in Swiss albino Mus musculus (mouse) assessed as protection against maximal electroshock-induced seizures at 20 mg/kg, ip after 1 hr; format: functional, organism-based; design: dose 20 mg/kg
# [2] = test system: Mus musculus; assay: Anticonvulsant activity in Swiss albino Mus musculus (mouse) assessed as protection against subcutaneous pentylenetetrazol-induced seizures at 40 mg/kg, ip after 0.5 hr; format: functional, organism-based; design: dose 40 mg/kg
# [3] = test system: Mus musculus; assay: Anticonvulsant activity in Swiss albino Mus musculus (mouse) assessed as protection against maximal electroshock-induced seizures at 40 mg/kg, ip after 1 hr; format: functional, organism-based; design: dose 40 mg/kg
# [4] = test system: Mus musculus; assay: Anticonvulsant activity in Swiss albino Mus musculus (mouse) assessed as protection against maximal electroshock-induced seizures at 10 mg/kg, ip after 4 hr; format: functional, organism-based; design: dose 10 mg/kg
# [5] = test system: Mus musculus; assay: Neurotoxicity in Swiss albino Mus musculus (mouse) assessed as minimal motor impairment at 30 mg/kg, ip after 4 hr; format: toxicity, organism-based; design: dose 30 mg/kg, route intraperitoneal; conditions: in vivo
# [6] = test system: Mus musculus; assay: Anticonvulsant activity in Swiss albino Mus musculus (mouse) assessed as protection against subcutaneous pentylenetetrazol-induced seizures at 20 mg/kg, ip after 4 hr; format: functional, organism-based; design: dose 20 mg/kg
# [7] = test system: Mus musculus; assay: Anticonvulsant activity in Swiss albino Mus musculus (mouse) assessed as protection against maximal electroshock-induced seizures at 20 mg/kg, ip after 4 hr; format: functional, organism-based; design: dose 20 mg/kg
# [8] = test system: Mus musculus; assay: Anticonvulsant activity in Swiss albino Mus musculus (mouse) assessed as protection against subcutaneous pentylenetetrazol-induced seizures at 10 mg/kg, ip after 4 hr; format: functional, organism-based; design: dose 10 mg/kg
# [9] = test system: Mus musculus; assay: Anticonvulsant activity in Swiss albino Mus musculus (mouse) assessed as protection against maximal electroshock-induced seizures at 10 mg/kg, ip after 2 hr; format: functional, organism-based; design: dose 10 mg/kg
# [10] = test system: Mus musculus; assay: Anticonvulsant activity in Swiss albino Mus musculus (mouse) assessed as protection against subcutaneous pentylenetetrazol-induced seizures at 10 mg/kg, ip after 0.5 hr; format: functional, organism-based; design: dose 10 mg/kg
# [11] = test system: Mus musculus; assay: Anticonvulsant activity in Swiss albino Mus musculus (mouse) assessed as protection against subcutaneous pentylenetetrazol-induced seizures at 20 mg/kg, ip after 0.5 hr; format: functional, organism-based; design: dose 20 mg/kg
# [12] = test system: Mus musculus; assay: Anticonvulsant activity in Swiss albino Mus musculus (mouse) assessed as protection against maximal electroshock-induced seizures at 10 mg/kg, ip after 1 hr; format: functional, organism-based; design: dose 10 mg/kg
# [13] = test system: Mus musculus; assay: Anticonvulsant activity in Swiss albino Mus musculus (mouse) assessed as protection against subcutaneous pentylenetetrazol-induced seizures at 40 mg/kg, ip after 4 hr; format: functional, organism-based; design: dose 40 mg/kg
# [14] = test system: Mus musculus; assay: Anticonvulsant activity in Swiss albino Mus musculus (mouse) assessed as protection against maximal electroshock-induced seizures at 40 mg/kg, ip after 4 hr; format: functional, organism-based; design: dose 40 mg/kg
# [15] = test system: Mus musculus; assay: Anticonvulsant activity in Swiss albino Mus musculus (mouse) assessed as protection against maximal electroshock-induced seizures at 20 mg/kg, ip after 2 hr; format: functional, organism-based; design: dose 20 mg/kg
# [16] = test system: Mus musculus; assay: Anticonvulsant activity in Swiss albino Mus musculus (mouse) assessed as protection against maximal electroshock-induced seizures at 20 mg/kg, ip after 3 hr; format: functional, organism-based; design: dose 20 mg/kg
# [17] = test system: Mus musculus; assay: Anticonvulsant activity in Swiss albino Mus musculus (mouse) assessed as protection against maximal electroshock-induced seizures at 40 mg/kg, ip after 3 hr; format: functional, organism-based; design: dose 40 mg/kg
# [18] = test system: Mus musculus; assay: Anticonvulsant activity in Swiss albino Mus musculus (mouse) assessed as protection against maximal electroshock-induced seizures at 10 mg/kg, ip after 3 hr; format: functional, organism-based; design: dose 10 mg/kg
# [19] = test system: Mus musculus; assay: Anticonvulsant activity in Swiss albino Mus musculus (mouse) assessed as protection against maximal electroshock-induced seizures at 40 mg/kg, ip after 2 hr; format: functional, organism-based; design: dose 40 mg/kg
# [20] = test system: Mus musculus; assay: Anticonvulsant activity in Swiss albino Mus musculus (mouse) assessed as protection against subcutaneous pentylenetetrazol-induced seizures at 5 mg/kg, ip after 0.5 hr; format: functional, organism-based; design: dose 5 mg/kg
# [21] = test system: Mus musculus; assay: Anticonvulsant activity in Swiss albino Mus musculus (mouse) assessed as protection against maximal electroshock-induced seizures at 5 mg/kg, ip after 3 hr; format: functional, organism-based; design: dose 5 mg/kg
# [22] = test system: Mus musculus; assay: Anticonvulsant activity in Swiss albino Mus musculus (mouse) assessed as protection against maximal electroshock-induced seizures at 5 mg/kg, ip after 1 hr; format: functional, organism-based; design: dose 5 mg/kg
Compound,Activity [1],Activity [2],Activity [3],Activity [4],Activity [7],Activity [8],Activity [9],Activity [11],Activity [14],further results
CC(C)C(=O)NC1=CC(=O)C(=O)c2ccccc21,Active,Active,Active,,,,,,,
CCC(=O)NC1=CC(=O)C(=O)c2ccccc21,Active,,,inactive,inactive,inactive,,,,Activity [5]: Non-toxic; Activity [6]: inactive
O=C1C=C(NC(=O)c2ccccc2)c2ccccc2C1=O,,,,inactive,inactive,inactive,inactive,,,Activity [10]: inactive
O=C1C=C(NC(=O)c2cccnc2)c2ccccc2C1=O,,,,inactive,inactive,,inactive,,,
CCCCCC(=O)NC1=CC(=O)C(=O)c2ccccc21,Active,Active,,,,,Active,Active,Active,Activity [12]: Active; Activity [13]: Active; Activity [15]: Active
CC(=O)NCC(=O)NC1=CC(=O)C(=O)c2ccccc21,,,,,,inactive,,,inactive,Activity [16]: Active; Activity [17]: inactive; Activity [12]: Active
CC(C)CC(=O)NC1=CC(=O)C(=O)c2ccccc21,Active,Active,Active,,,,,Active,,Activity [16]: Active; Activity [17]: Active; Activity [18]: Active
CC(=O)NC1=CC(=O)C(=O)c2ccccc21,Active,,Active,inactive,inactive,inactive,,,inactive,Activity [18]: inactive; Activity [6]: inactive
CC(=O)Nc1ccc(C(=O)NC2=CC(=O)C(=O)c3ccccc32)cc1,Active,Active,Active,,Active,,Active,Active,Active,Activity [12]: Active; Activity [13]: Active; Activity [19]: Active; Activity [15]: Active; Activity [6]: inactive
O=C1NC(=O)C(c2ccccc2)(c2ccccc2)N1,,,,,,,,,,Activity [20]: Active; Activity [21]: Active; Activity [22]: Active
CCCC(=O)NC1=CC(=O)C(=O)c2ccccc21,Active,Active,Active,inactive,,,,Active,,Activity [16]: Active; Activity [17]: Active; Activity [13]: Active
